Assays:
[1] = biological target: Human norepinephrine transporter (NET) (Homo sapiens, UniProt P23975); experiment: Binding assay to human norepinephrine transporter (NET), [3H]-Nisoxetin; conditions: human NET enriched membranes, 5 nM [3H]-Nisoxetin
Description: Binding Assay to Human Norepinephrine Transporter (NET).
Human norepinephrine transporter (NET) enriched membranes (5 μg) were incubated with 5 nM of radiolabeled [3H]-Nisoxetin in assay buffer containing 50 mM Tris-HCl, 120 mM NaCl, 5 mM KCl, pH 7.4. NSB (non specific binding) was measured by adding 10 μM of desipramine. The binding of the test compound was measured at five different concentrations. After 60 min incubation at 4° C., binding reaction was terminated by filtering through Multiscreen GF/C (Millipore) presoaked in 0.5% polyethyleneimine in Vacuum Manifold Station, followed by 3 washes with ice-cold filtration buffer containing 50 mM Tris-HCl, 0.9% NaCl, pH 7.4. Filter plates were dried at 60° C. for 1 hour and 30 μl of scintillation cocktail were added to each well before radioactivity reading. Readings were performed in a Trilux 1450 Microbeta radioactive counter (Perkin Elmer).

[2] = biological target: Human α2δ-1 Subunit of Cav2.2 Calcium Channel (Homo sapiens, UniProt P54289); experiment: Human α2δ-1 subunit of Cav2.2 calcium channel assay, [3H]-Gabapentin binding; conditions: human α2δ-1 enriched membranes, 15 nM [3H]-Gabapentin
Description: Human α2δ-1 Subunit of Cav2.2 Calcium Channel Assay
Human α2δ-1 enriched membranes (2.5 μg) were incubated with 15 nM of radiolabeled [3H]-Gabapentin in assay buffer containing Hepes-KOH 10 mM, pH 7.4. NSB (non specific binding) was measured by adding 10 μM pregabalin. The binding of the test compound was measured at five different concentrations. After 60 min incubation at 27° C., binding reaction was terminated by filtering through Multiscreen GF/C (Millipore) presoaked in 0.5% polyethyleneimine in Vacuum Manifold Station, followed by 3 washes with ice-cold filtration buffer containing 50 mM Tris-HCl, pH 7.4. Filter plates were dried at 60° C. for 1 hour and 30 μl of scintillation cocktail were added to each well before radioactivity reading. Readings were performed in a Trilux 1450 Microbeta radioactive counter (Perkin Elmer).

Chain of Human α2δ-1 Subunit of Cav2.2 Calcium Channel (P54289 25-1103): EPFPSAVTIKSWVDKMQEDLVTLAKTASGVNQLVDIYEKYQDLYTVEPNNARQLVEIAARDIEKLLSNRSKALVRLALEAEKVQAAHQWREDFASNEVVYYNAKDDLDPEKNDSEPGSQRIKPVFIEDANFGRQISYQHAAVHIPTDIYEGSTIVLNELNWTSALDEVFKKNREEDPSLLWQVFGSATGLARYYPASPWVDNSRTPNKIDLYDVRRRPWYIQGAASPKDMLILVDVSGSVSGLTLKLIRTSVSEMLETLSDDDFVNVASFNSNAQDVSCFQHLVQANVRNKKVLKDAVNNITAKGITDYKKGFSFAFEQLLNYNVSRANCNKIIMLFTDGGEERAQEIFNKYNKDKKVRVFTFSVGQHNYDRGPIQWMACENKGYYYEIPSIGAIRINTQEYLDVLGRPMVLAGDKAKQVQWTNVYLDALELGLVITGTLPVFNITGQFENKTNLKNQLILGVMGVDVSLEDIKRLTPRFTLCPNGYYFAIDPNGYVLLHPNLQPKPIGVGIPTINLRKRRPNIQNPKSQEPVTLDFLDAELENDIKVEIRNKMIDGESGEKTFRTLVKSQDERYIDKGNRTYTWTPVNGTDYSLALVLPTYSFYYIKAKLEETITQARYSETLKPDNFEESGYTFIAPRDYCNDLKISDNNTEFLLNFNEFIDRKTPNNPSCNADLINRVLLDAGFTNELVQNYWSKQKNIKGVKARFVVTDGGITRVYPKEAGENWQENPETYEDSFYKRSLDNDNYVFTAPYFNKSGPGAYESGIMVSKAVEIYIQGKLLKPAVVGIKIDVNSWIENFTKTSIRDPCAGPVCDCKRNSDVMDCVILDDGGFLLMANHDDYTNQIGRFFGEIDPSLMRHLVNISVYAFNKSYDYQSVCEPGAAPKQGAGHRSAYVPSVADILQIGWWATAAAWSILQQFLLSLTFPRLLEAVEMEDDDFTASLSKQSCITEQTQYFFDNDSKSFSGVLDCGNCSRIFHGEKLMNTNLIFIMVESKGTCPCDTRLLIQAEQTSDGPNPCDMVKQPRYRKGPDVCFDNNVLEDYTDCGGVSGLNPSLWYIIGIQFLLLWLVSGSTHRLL
Chain of Human norepinephrine transporter (NET) (P23975 whole entry): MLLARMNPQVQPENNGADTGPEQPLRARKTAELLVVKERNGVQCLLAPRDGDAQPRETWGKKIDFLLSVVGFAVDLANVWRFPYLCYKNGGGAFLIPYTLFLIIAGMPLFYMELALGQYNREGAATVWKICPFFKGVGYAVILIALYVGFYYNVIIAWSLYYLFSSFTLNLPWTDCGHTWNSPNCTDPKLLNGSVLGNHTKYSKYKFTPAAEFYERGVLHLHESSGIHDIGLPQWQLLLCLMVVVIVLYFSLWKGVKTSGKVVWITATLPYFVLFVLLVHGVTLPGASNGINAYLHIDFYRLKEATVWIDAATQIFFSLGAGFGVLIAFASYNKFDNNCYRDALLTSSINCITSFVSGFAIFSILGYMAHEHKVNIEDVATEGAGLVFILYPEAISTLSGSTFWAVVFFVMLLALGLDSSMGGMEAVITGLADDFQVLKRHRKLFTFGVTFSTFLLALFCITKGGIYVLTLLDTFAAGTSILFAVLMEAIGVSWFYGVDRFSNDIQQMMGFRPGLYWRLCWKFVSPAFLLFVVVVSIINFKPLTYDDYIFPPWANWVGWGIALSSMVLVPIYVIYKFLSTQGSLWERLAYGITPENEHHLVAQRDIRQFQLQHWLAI

SMILES: Cc1nnc(N(C)C)c2nn(-c3cccc(OC(CCNCCF)c4ccccc4)c3)c(C)c12 (stereo not shown) [Example 54, 2-(3-(3-((2-fluoroethyl)amino)-1-phenylpropoxy)phenyl)-N,N,3,4-tetramethyl-2H-pyrazolo[3,4-d]pyridazin-7-amine]
- Ki [1]: 100 to 500 nM
- Ki [2]: 500 to 5000 nM

SMILES: CNCCC(Oc1cccc(-n2nc3c(N(C)C)nnc(C)c3c2C)c1)c1ccccc1 (stereo not shown) [Example 1, N,N,3,4-Tetramethyl-2-(3-(3-(methylamino)-1-phenylpropoxy)phenyl)-2H-pyrazolo[3,4-d]pyridazin-7-amine]
- Ki [1]: < 100 nM
- Ki [2]: 500 to 5000 nM

SMILES: CNCCC(Oc1cccc(-n2nc3c(N(C)C)nnc(C)c3c2C)c1)c1cccs1 (stereo not shown) [Example 51, N,N,3,4-Tetramethyl-2-(3-(3-(methylamino)-1-(thiophen-2-yl)propoxy)phenyl)-2H-pyrazolo[3,4-d]pyridazin-7-amine]
- Ki [1]: < 100 nM
- Ki [2]: 500 to 5000 nM

SMILES: CNCCC(Oc1cccc(-n2nc3c(N(C)C)nnc(C)c3c2C)c1)c1ccc(C#N)cc1 (stereo not shown) [Example 7, 4-(1-(3-(7-(dimethylamino)-3,4-dimethyl-2H-pyrazolo[3,4-d]pyridazin-2-yl)phenoxy)-3-(methylamino)propyl)benzonitrile]
- Ki [1]: 100 to 500 nM
- Ki [2]: 500 to 5000 nM

SMILES: Cc1nnc(N(C)C)c2nn(-c3cccc(OCCC(N)c4ccccc4)c3)c(C)c12 (stereo not shown) [Example 14, 2-(3-(3-amino-3-phenylpropoxy)phenyl)-N,N,3,4-tetramethyl-2H-pyrazolo[3,4-d]pyridazin-7-amine]
- Ki [1]: 100 to 500 nM
- Ki [2]: 500 to 5000 nM

SMILES: CNCCC(Oc1cccc(-n2nc3c(NC)nnc(C)c3c2C)c1)c1ccccc1F (stereo not shown) [Example 22, 2-(3-(1-(2-fluorophenyl)-3-(methylamino)propoxy)phenyl)-N,3,4-trimethyl-2H-pyrazolo[3,4-d]pyridazin-7-amine]
- Ki [1]: < 100 nM
- Ki [2]: 500 to 5000 nM

SMILES: CNCC[C@H](Oc1cccc(-n2nc3c(N(C)C)nnc(C)c3c2C)c1)c1ccccc1 [Example 58, (S)-N,N,3,4-Tetramethyl-2-(3-(3-(methylamino)-1-phenylpropoxy)phenyl)-2H-pyrazolo[3,4-d]pyridazin-7-amine]
- Ki [1]: < 100 nM
- Ki [2]: 500 to 5000 nM

SMILES: Cc1nnc(N(C)C)c2nn(-c3cccc(OC(CCNCC(F)F)c4ccccc4)c3)c(C)c12 (stereo not shown) [Example 55, 2-(3-(3-((2,2-difluoroethyl)amino)-1-phenylpropoxy)phenyl)-N,N,3,4-tetramethyl-2H-pyrazolo[3,4-d]pyridazin-7-amine]
- Ki [1]: 500 to 1000 nM
- Ki [2]: 500 to 5000 nM

SMILES: CNCC(Oc1cccc(-n2nc3c(N(C)C)nnc(C)c3c2C)c1)c1cccc(F)c1 (stereo not shown) [Example 43, 2-(3-(1-(3-fluorophenyl)-2-(methylamino)ethoxy)phenyl)-N,N,3,4-tetramethyl-2H-pyrazolo[3,4-d]pyridazin-7-amine]
- Ki [1]: < 100 nM
- Ki [2]: 500 to 5000 nM

SMILES: CNCC[C@@H](Oc1cccc(-n2nc3c(N(C)C)nnc(C)c3c2C)c1)c1ccccc1F [Example 62, (R)-2-(3-(1-(2-Fluorophenyl)-3-(methylamino)propoxy)phenyl)-N,N,3,4-tetramethyl-2H-pyrazolo[3,4-d]pyridazin-7-amine]
- Ki [1]: < 100 nM
- Ki [2]: 500 to 5000 nM

SMILES: CNCCC(Oc1cccc(-n2c(C)c3c(C)nnc(C)c3c2C)c1)c1cccc(F)c1 (stereo not shown) [Example 67, 3-(3-fluorophenyl)-N-methyl-3-(3-(1,4,5,7-tetramethyl-6H-pyrrolo[3,4-d]pyridazin-6-yl)phenoxy)propan-1-amine]
- Ki [1]: 100 to 500 nM
- Ki [2]: 500 to 5000 nM

SMILES: CNC[C@@H](Oc1cccc(-n2nc3c(N(C)C)nnc(C)c3c2C)c1)c1ccccc1 [Example 61, (S)-N,N,3,4-tetramethyl-2-(3-(2-(methylamino)-1-phenylethoxy)phenyl)-2H-pyrazolo[3,4-d]pyridazin-7-amine]
- Ki [1]: < 100 nM
- Ki [2]: 500 to 5000 nM

SMILES: CNCCCC(Oc1cccc(-n2nc3c(N(C)C)nnc(C)c3c2C)c1)c1ccccc1 (stereo not shown) [Example 6, N,N,3,4-tetramethyl-2-(3-(4-(methylamino)-1-phenylbutoxy)phenyl)-2H-pyrazolo[3,4-d]pyridazin-7-amine]
- Ki [1]: 100 to 500 nM
- Ki [2]: 500 to 5000 nM

SMILES: CNCCC(Oc1cccc(-n2nc3c(N(C)C)nnc(C)c3c2C)c1)c1cccnc1 (stereo not shown) [Example 42, N,N,3,4-tetramethyl-2-(3-(3-(methylamino)-1-(pyridin-3-yl)propoxy)phenyl)-2H-pyrazolo[3,4-d]pyridazin-7-amine]
- Ki [1]: 100 to 500 nM
- Ki [2]: < 500 nM

SMILES: CNCC(Oc1cccc(-n2nc3c(N(C)C)nnc(C)c3c2C)c1)c1cccs1 (stereo not shown) [Example 40, N,N,3,4-tetramethyl-2-(3-(2-(methylamino)-1-(thiophen-2-yl)ethoxy)phenyl)-2H-pyrazolo[3,4-d]pyridazin-7-amine]
- Ki [1]: 500 to 1000 nM
- Ki [2]: 500 to 5000 nM

SMILES: CNCCC(Oc1cccc(-n2nc3c(N(C)C)nnc(C)c3c2C)c1)c1cncs1 (stereo not shown) [Example 48, N,N,3,4-tetramethyl-2-(3-(3-(methylamino)-1-(thiazol-5-yl)propoxy)phenyl)-2H-pyrazolo[3,4-d]pyridazin-7-amine]
- Ki [1]: 500 to 1000 nM
- Ki [2]: < 500 nM

SMILES: CNc1nnc(C)c2c(C)n(-c3cccc(OC(CCN)c4ccccc4F)c3)nc12 (stereo not shown) [Example 23, 2-(3-(3-amino-1-(2-fluorophenyl)propoxy)phenyl)-N,3,4-trimethyl-2H-pyrazolo[3,4-d]pyridazin-7-amine]
- Ki [1]: 100 to 500 nM
- Ki [2]: 500 to 5000 nM

SMILES: CNC[C@H](Oc1cccc(-n2nc3c(N(C)C)nnc(C)c3c2C)c1)c1ccccc1 [Example 60, (R)-N,N,3,4-Tetramethyl-2-(3-(2-(methylamino)-1-phenylethoxy)phenyl)-2H-pyrazolo[3,4-d]pyridazin-7-amine]
- Ki [1]: 100 to 500 nM
- Ki [2]: 500 to 5000 nM

SMILES: CCNCCC(Oc1cccc(-n2nc3c(N(C)C)nnc(C)c3c2C)c1)c1cccc(F)c1 (stereo not shown) [Example 17, 2-(3-(3-(ethylamino)-1-(3-fluorophenyl)propoxy)phenyl)-N,N,3,4-tetramethyl-2H-pyrazolo[3,4-d]pyridazin-7-amine]
- Ki [1]: ≥ 1000 nM
- Ki [2]: 500 to 5000 nM

SMILES: CNCCC(Oc1cccc(-n2nc3c(N(C)C)nnc(C)c3c2C)c1)c1cc(F)cc(F)c1 (stereo not shown) [Example 18, 2-(3-(1-(3,5-difluorophenyl)-3-(methylamino)propoxy)phenyl)-N,N,3,4-tetramethyl-2H-pyrazolo[3,4-d]pyridazin-7-amine]
- Ki [1]: 100 to 500 nM
- Ki [2]: 500 to 5000 nM

SMILES: Cc1nnc(N(C)C)c2nn(-c3cccc(OC4CNCc5ccccc54)c3)c(C)c12 (stereo not shown) [Example 16, N,N,3,4-tetramethyl-2-(3-((1,2,3,4-tetrahydroisoquinolin-4-yl)oxy)phenyl)-2H-pyrazolo[3,4-d]pyridazin-7-amine]
- Ki [1]: ≥ 1000 nM
- Ki [2]: 500 to 5000 nM

SMILES: Cc1nnc(N(C)C)c2nn(-c3cccc(OC(CCN(C)C)c4ccccc4)c3)c(C)c12 (stereo not shown) [Example 2, 2-(3-(3-(dimethylamino)-1-phenylpropoxy)phenyl)-N,N,3,4-tetramethyl-2H-pyrazolo[3,4-d]pyridazin-7-amine]
- Ki [1]: 100 to 500 nM
- Ki [2]: 500 to 5000 nM

SMILES: Cc1nnc(N(C)C)c2nn(-c3cccc(OC(CCN)c4ccccc4F)c3)c(C)c12 (stereo not shown) [Example 19, 2-(3-(3-amino-1-(2-fluorophenyl)propoxy)phenyl)-N,N,3,4-tetramethyl-2H-pyrazolo[3,4-d]pyridazin-7-amine]
- Ki [1]: 100 to 500 nM
- Ki [2]: 500 to 5000 nM

— patent US20200190081A1, “META SUBSTITUTED PHENYLPYRAZOLO- AND PHENYLPYRROLO- PYRIDAZINE DERIVATIVES HAVING MULTIMODAL ACTIVITY AGAINST PAIN” (ESTEVE PHARMACEUTICALS, S.A., priority 2016, published 2020)
